According to patent US7605156B2, “Methods for the use of inhibitors of cytosolic phospholipase A2” (Wyeth, priority 2001, dated 2009):

Target: T1, cPLA2 (Homo sapiens, UniProt P47712)
T1 sequence (P47712 1-749): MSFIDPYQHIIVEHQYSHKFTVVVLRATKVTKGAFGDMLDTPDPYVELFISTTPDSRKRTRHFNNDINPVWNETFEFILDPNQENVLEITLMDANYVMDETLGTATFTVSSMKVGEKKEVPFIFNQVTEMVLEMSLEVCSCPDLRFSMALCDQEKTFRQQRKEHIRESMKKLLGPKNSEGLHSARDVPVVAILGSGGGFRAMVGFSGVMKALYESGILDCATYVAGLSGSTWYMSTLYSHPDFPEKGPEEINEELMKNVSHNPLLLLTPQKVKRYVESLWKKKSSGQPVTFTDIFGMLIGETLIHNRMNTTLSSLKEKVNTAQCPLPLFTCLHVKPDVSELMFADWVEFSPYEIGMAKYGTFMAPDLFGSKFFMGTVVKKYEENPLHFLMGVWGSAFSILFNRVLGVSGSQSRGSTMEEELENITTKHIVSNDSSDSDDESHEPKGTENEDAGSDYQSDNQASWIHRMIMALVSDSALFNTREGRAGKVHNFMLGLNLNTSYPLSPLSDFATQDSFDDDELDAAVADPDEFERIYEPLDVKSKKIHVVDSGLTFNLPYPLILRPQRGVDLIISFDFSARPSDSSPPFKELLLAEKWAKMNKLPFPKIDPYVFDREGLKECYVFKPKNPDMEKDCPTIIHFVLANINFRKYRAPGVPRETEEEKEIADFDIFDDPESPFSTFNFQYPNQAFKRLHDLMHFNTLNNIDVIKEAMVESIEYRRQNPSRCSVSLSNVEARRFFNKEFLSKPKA
Assay: Coumarine assay (hydrolysis of 7-hydroxycoumarinyl 6-heptenoate)
Format: biochemical
Conditions: 60 μM 7-hydroxycoumarinyl 6-heptenoate, pH 7.5; read-out: Coumarin IC50

Structure (SMILES)	IC50
Cc1c(Cl)cc(F)cc1S(=O)(=O)NCCc1c(CCOc2ccc(C(=O)O)cc2)c2cc(Cl)ccc2n1C(c1ccccc1)c1ccccc1 [Example 262, 4-{2-[1-benzhydryl-5-chloro-2-(2-{[(3-chloro-5-fluoro-2-methylphenyl)sulfonyl]amino}ethyl)-1H-indol-3-yl]ethoxy}benzoic acid]	530 nM
O=C(O)c1ccc(OCCc2c(CCNS(=O)(=O)Cc3cccc(C(F)(F)F)c3)n(C(c3ccccc3)c3ccccc3)c3ccc(Cl)cc23)cc1 [Example 12]	150000 nM
Cc1nn(C)c(C)c1S(=O)(=O)NCCc1c(CCOc2ccc(C(=O)O)cc2)c2cc(Cl)ccc2n1C(c1ccccc1)c1ccccc1 [Example 213, 4-{2-[1-benzhydryl-5-chloro-2-(2-{[(1,3,5-trimethyl-1H-pyrazol-4-yl)sulfonyl]amino}ethyl)-1H-indol-3-yl]ethoxy}benzoic acid]	450 nM
O=C(O)c1ccc(OCCc2c(CCNS(=O)(=O)Cc3cccc(C(F)(F)F)c3)n(C(c3ccccc3)c3ccccc3)c3ccc(Cl)cc23)cc1 [Example 47, 4-(2-{1-benzhydryl-5-chloro-2-[2-({[3-(trifluoromethyl)benzyl]sulfonyl}amino)ethyl]-1H-indol-3-yl}ethoxy)benzoic acid]	580 nM
CC(=O)N1C(C)CN(CCS(=O)(=O)NCCc2c(CCOc3ccc(C(=O)O)cc3)c3cc(Cl)ccc3n2C(c2ccccc2)c2ccccc2)CC1C (stereo not shown) [Example 244, 4-[2-(2-{2-[2-(4-Acetyl-3,5-dimethyl-piperazin-1-yl)-ethanesulfonylamino]-ethyl}-1-benzhydryl-5-chloro-1H-indol-3-yl)-ethoxy]-benzoic acid]	1300 nM
CS(=O)(=O)c1ccccc1S(=O)(=O)NCCc1c(CCOc2ccc(C(=O)O)cc2)c2cc(Cl)ccc2n1C(c1ccccc1)c1ccccc1 [Example 205]	370 nM
O=S(=O)(Cc1ccc(Cl)c(Cl)c1)NCCc1c(CCOc2ccc(-c3nn[nH]n3)cc2)c2cc(Cl)ccc2n1C(c1ccccc1)c1ccccc1 [Example 192, N-[2-(1-benzhydryl-5-chloro-3-{2-[4-(2H-tetraazol-5-yl)phenoxy]ethyl}-1H-indol-2-yl)ethyl]-1-(3,4-dichlorophenyl)methanesulfonamide]	< 3700 nM
Cc1c(S(=O)(=O)NCCc2c(CCOc3ccc(C(=O)O)cc3)c3cc(Cl)ccc3n2C(c2ccccc2)c2ccccc2)cnn1-c1ccccc1 [Example 211, 4-{2-[1-benzhydryl-5-chloro-2-(2-{[(5-methyl-1-phenyl-1H-pyrazol-4-yl)sulfonyl]amino}ethyl)-1H-indol-3-yl]ethoxy}benzoic acid]	400 nM
NC(=O)C1CCCN1CCS(=O)(=O)NCCc1c(CCOc2ccc(C(=O)O)cc2)c2cc(Cl)ccc2n1C(c1ccccc1)c1ccccc1 (stereo not shown) [Example 247, 4-[2-(1-Benzhydryl-2-{2-[2-(2-carbamoyl-pyrrolidin-1-yl)-ethanesulfonylamino]-ethyl}-5-chloro-1H-indol-3-yl)-ethoxy]-benzoic acid]	1200 nM
O=C(O)c1ccc(CCCc2c(CCNS(=O)(=O)c3ccc(C(F)(F)F)cc3)n(C(c3ccccc3)c3ccccc3)c3ccc(Cl)cc23)cc1 [Example 228]	400 nM
Cc1nc(-c2ccc(S(=O)(=O)NCCc3c(CCCc4ccc(C(=O)O)cc4)c4cc(Cl)ccc4n3C(c3ccccc3)c3ccccc3)s2)cs1 [Example 176, 4-(3-{1-benzhydryl-5-chloro-2-[2-({[5-(2-methyl-1,3-thiazol-4-yl)thien-2-yl]sulfonyl}amino)ethyl]-1H-indol-3-yl}propyl)benzoic acid]	400 nM
O=C(O)c1ccc(CCCc2c(CCNS(=O)(=O)c3cc(F)c(Cl)cc3F)n(C(c3ccccc3)c3ccccc3)c3ccc(Cl)cc23)cc1 [Example 168, 4-{3-[1-benzhydryl-5-chloro-2-(2-{[(4-chloro-2,5-difluorophenyl)sulfonyl]amino}ethyl)-1H-indol-3-yl]propyl}benzoic acid]	270 nM
O=C(O)c1ccc(OCCc2c(CCNS(=O)(=O)c3cc(F)c(Cl)cc3F)n(C(c3ccccc3)c3ccccc3)c3ccc(Cl)cc23)cc1 [Example 170, 4-{2-[1-benzhydryl-5-chloro-2-(2-{[(4-chloro-2,5-difluorophenyl)sulfonyl]amino}ethyl)-1H-indol-3-yl]ethoxy}benzoic acid]	950 nM
O=C(O)c1cccc(OCCc2c(CCNS(=O)(=O)Cc3ccccc3)n(C(c3ccccc3)c3ccccc3)c3ccc(Cl)cc23)c1 [Example 283]	500 nM
O=C(O)c1ccc(OCCc2c(CCNS(=O)(=O)c3ccccc3Cl)n(C(c3ccccc3)c3ccccc3)c3ccc(Cl)cc23)cc1 [Example 255, 4-{2-[1-benzhydryl-5-chloro-2-(2{[(2-chlorophenyl)sulfonyl]amino}ethyl)-1H-indol-3-yl]ethoxy}benzoic acid]	500 nM
COc1ccc(S(=O)(=O)NCCc2c(CCOc3ccc(C(=O)O)cc3)c3cc(Cl)ccc3n2C(c2ccccc2)c2ccccc2)c2nonc12 [Example 175, 4-{2-[1-benzhydryl-5-chloro-2-(2-{[(7-methoxy-2,1,3-benzoxadiazol-4-yl)sulfonyl]amino}ethyl)-1H-indol-3-yl]ethoxy}benzoic acid]	370 nM
O=C(O)c1ccc(CCCc2c(CCNS(=O)(=O)c3c(Cl)cc(Cl)cc3Cl)n(C(c3ccccc3)c3ccccc3)c3ccc(Cl)cc23)cc1 [Example 154, 4-{3-[1-benzhydryl-5-chloro-2-(2-([(2,4,6-trichlorophenyl)sulfonyl]amino}ethyl)-1H-indol-3-yl]propyl}benzoic acid]	350 nM
O=C(O)c1ccc(CCCc2c(CCNS(=O)(=O)c3ccccc3[N+](=O)[O-])n(C(c3ccccc3)c3ccccc3)c3ccc(Cl)cc23)cc1 [Example 264, 4-{3-[1-benzhydryl-5-chloro-2-(2-{[(2-nitrophenyl)sulfonyl]amino}ethyl)-1H-indol-3-yl]propyl}benzoic acid]	400 nM
CC(CCl)c1ccccc1S(=O)(=O)NCCc1c(CCCc2ccc(C(=O)O)cc2)c2cc(Cl)ccc2n1C(c1ccccc1)c1ccccc1 (stereo not shown) [Example 277, 4-(3-{1-Benzhydryl-5-chloro-2-[2-({[2-(2-chloro-1-methylethyl)phenyl]sulfonyl}amino)ethyl]-1H-indol-3-yl}propyl)benzoic acid]	600 nM

Further molecules by falling IC50, results first:

IC50	Structure (SMILES)
250 nM	O=C(O)c1ccc(OCCc2c(CCNS(=O)(=O)c3ccccc3OC(F)(F)F)n(C(c3ccccc3)c3ccccc3)c3ccc(Cl)cc23)cc1 [Example 231]
250 nM	O=C(O)c1ccc(CCCc2c(CCNS(=O)(=O)c3c(F)cccc3F)n(C(c3ccccc3)c3ccccc3)c3ccc(Cl)cc23)cc1 [Example 224]
250 nM	Cc1ccc(S(=O)(=O)NCCc2c(CCCc3ccc(C(=O)O)cc3)c3cc(Cl)ccc3n2C(c2ccccc2)c2ccccc2)cc1Cl [Example 261, 4-{3-[1-benzhydryl-5-chloro-2-(2-([(3-chloro-4-methylphenyl)sulfonyl]amino}ethyl)-1H-indol-3-yl]propyl}benzoic acid]
200 nM	O=C(O)c1ccc(OCCc2c(CCNS(=O)(=O)c3ccccc3-c3ccccc3)n(C(c3ccccc3)c3ccccc3)c3ccc(Cl)cc23)cc1 [Example 164, 4-[2-(1-benzhydryl-2-{2-[(1,1′-biphenyl-2-ylsulfonyl)amino]ethyl}-5-chloro-1H-indol-3-yl)ethoxy]benzoic acid]
200 nM	O=C(O)c1ccc(CCCc2c(CCNS(=O)(=O)c3ccccc3Br)n(C(c3ccccc3)c3ccccc3)c3ccc(Cl)cc23)cc1 [Example 158, 4-{3-[1-benzhydryl-2-(2-{[(2-bromophenyl)sulfonyl]amino}ethyl)-5-chloro-1H-indol-3-yl]propyl}benzoic acid]
180 nM	COc1ccccc1S(=O)(=O)NCCc1c(CCOc2ccc(C(=O)O)cc2)c2cc(Cl)ccc2n1C(c1ccccc1)c1ccccc1 [Example 235, 4-{2-[1-benzhydryl-5-chloro-2-(2-{[(2-methoxyphenyl)sulfonyl]amino}ethyl)-1H-indol-3-yl]ethoxy}benzoic acid]
160 nM	Cc1cc(C)c(S(=O)(=O)NCCc2c(CCOc3ccc(C(=O)O)cc3)c3cc(Cl)ccc3n2C(c2ccccc2)c2ccccc2)c(C)c1 [Example 266, 4-[2-(1-benzhydryl-5-chloro-2-{2-[(mesitylsulfonyl)amino]ethyl}-1H-indol-3-yl)ethoxy]benzoic acid]
100 nM	CC(C)Oc1ccccc1S(=O)(=O)NCCc1c(CCCc2ccc(C(=O)O)cc2)c2cc(Cl)ccc2n1C(c1ccccc1)c1ccccc1 [Example 186, 4-(3-{1-Benzhydryl-5-chloro-2-[2-(2-isopropoxy-benzenesulfonylamino)-ethyl]-1H-indol-3-yl}-propyl)benzoic acid]
100 nM	CCc1cccc(CC)c1S(=O)(=O)NCCc1c(CCOc2ccc(C(=O)O)cc2)c2cc(Cl)ccc2n1C(c1ccccc1)c1ccccc1 [Example 272, 4-{2-[1-benzhydryl-5-chloro-2-(2-{[(2,6-diethylphenyl)sulfonyl]amino}ethyl)-1H-indol-3-yl]ethoxy}benzoic acid]
